Source: patent US20100284985A1, “Composition” (Danisco A/S, priority 2007, published 2010)

What was measured:
Type in all cases: cell-based
[1] = system: Brochothrix thermosphacta DCS 780; assay: FIC checkerboard assay, LAE with Nisaplin
Procedure: (§1) The Fractional Inhibition Concentration (FIC) assay is also a 96 well liquid based assay with a checkerboard titration layout (7, 8), one plate for each strain and sets of concentrations. Cultivation media can be seen in Appendix 1. O.D. at 620 nm is read at zero hours (at strain addition) and after a 24-hour incubation period. […] The FICs for the two substances are plotted towards each other in a graph called an isobologram. […] Additionally, the FIC index is then calculated as follows: FICindex=FICA+FICB, if FICindex is lower than 1 there is synergy, if it is higher than one there is antagony and if it is equal to one there is an additive effect.
(§2) FICs were determined for LAE in combination with Nisaplin and Natamax for strains in Table 1A and B.

[2] = system: Listeria monocytogenes DCS 489; assay: FIC checkerboard assay, LAE with Nisaplin
Procedure: as §1, §2

[3] = system: Bacillus licheniformis DCS 561; assay: FIC checkerboard assay, LAE with Nisaplin
Procedure: as §1, §2

[4] = system: Klebsiella oxytoca DCS 567; assay: MIC assay, LAE
Procedure: (§3) The Minimal Inhibition Concentration Assay (MIC) is a 96 well liquid based assay developed for a semi-automated assessment system and performed essentially as described in (7). […] From an overnight culture […] of each strain was inoculated in one well corresponding to an approximate inoculation density of 10^3-10^4 cells/well. Media used were CASO, MRS and YM (Appendix 1). Strains were incubated at 20° C., 25° C., 37° C. and under aerobic/anaerobic conditions depending on the preferred conditions for the particular strain (Appendix 1). At time zero, after adding the AM, the optical density (O.D.) of the bacterial culture is measured at 620 nm and then again after 24 hours. […] MIC is defined as the lowest concentration of the AM that will inhibit measurable growth. A bacteriostatic effect is defined as the OD620 at 24 h being less than or equal to 20% of the growth control.

Escherichia coli DCS 497 = assay: MIC assay, LAE
Procedure: as §3

[5] = system: Listeria monocytogenes DCS 490; assay: MIC assay, LAE
Procedure: as §3

[6] = system: Clostridium sporogenes DCS 812; assay: MIC assay, LAE
Procedure: as §3

[7] = system: Clostridium sporogenes (spores) DCS 812sp; assay: MIC assay, LAE; settings: ppm of the active component
Procedure: as §3

[8] = system: Listeria monocytogenes DCS 489; assay: MIC assay, LAE
Procedure: as §3

[9] = system: Lactobacillus fermentum DCS 573; assay: MIC assay, LAE
Procedure: as §3

Hafnia alvei DCS 613 = assay: MIC assay, LAE
Procedure: as §3

[10] = system: Debaryomyces hansenii DCS 605; assay: MIC assay, LAE
Procedure: as §3

[11] = system: Saccharomyces cerevisiae DCS 599; assay: MIC assay, LAE
Procedure: as §3

[12] = system: Clostridium sporogenes (spores) DCS 808sp; assay: MIC assay, LAE; settings: ppm of the active component
Procedure: as §3

[13] = Klebsiella oxytoca, DCS567, ppm of the active component
[14] = Escherichia coli, DCS497, ppm of the active component
[15] = Listeria monocytogenes, DCS490, ppm of the active component
[16] = Clostridium sporogenes, DCS812, ppm of the active component
[17] = Listeria monocytogenes, DCS489, ppm of the active component
[18] = Hafnia alvei, DCS613, ppm of the active component
[19] = Debaryomyces hansenii, DCS605, ppm of the active component
[20] = Saccharomyces cerevisiae, DCS599, ppm of the active component

CCCCCCCCCCCC(=O)N[C@@H](CCCNC(=N)N)C(=O)OCC.Cl [LAE, N^α-Lauroyl-L-arginine ethyl ester monohydrochloride]
FICLAE ([1]; Nisaplin 50 ppm + LAE 33 ppm): 0.67 | FICLAE ([1]; Nisaplin 90 ppm + LAE 22 ppm): 0.44 | FICLAE ([1]; Nisaplin 210 ppm + LAE 0 ppm): 0.00 | FICLAE ([2]; Nisaplin 0 ppm + LAE 50 ppm): 1.00 | FICLAE ([2]; Nisaplin 50 ppm + LAE 22 ppm): 0.44 | FICLAE ([2]; Nisaplin 90 ppm + LAE 15 ppm): 0.30 | FICLAE ([2]; Nisaplin 130 ppm + LAE 5 ppm): 0.09 | FICLAE ([2]; Nisaplin 170 ppm + LAE 4 ppm): 0.04 | FICLAE ([2]; Nisaplin 210 ppm + LAE 1 ppm): 0.02 | FICLAE ([2]; Nisaplin 250 ppm + LAE 0 ppm): 0.00 | FICLAE ([3]; Nisaplin 50 ppm + LAE 22.2 ppm): 0.44 | FICLAE ([3]; Nisaplin 130 ppm + LAE 14.8 ppm): 0.30 | FICLAE ([3]; Nisaplin 210 ppm + LAE 9.9 ppm): 0.20 | FICLAE ([3]; Nisaplin 250 ppm + LAE 0 ppm): 0.00 | MBC [4, 13]: 41 µg/mL | MIC [4, 13]: 32.8 µg/mL | increased lag phase ([4]; ppm of the active component): 18.2 ppm | MBC (Escherichia coli DCS 497; [14]): 21.9 µg/mL | MIC (Escherichia coli DCS 497; [14]): 21.9 µg/mL | increased lag phase (Escherichia coli DCS 497; ppm of the active component): 18.2 ppm | MBC [5, 15]: 12.2 µg/mL | MIC [5, 15]: 12.1 µg/mL | increased lag phase ([5]; ppm of the active component): 8.1 ppm | MBC [6, 16]: 9.7 µg/mL | MIC [6, 16]: 9.7 µg/mL | increased lag phase ([6]; ppm of the active component): 9.7 ppm | MBC ([7]; Clostridium sporogenes): 8.1 µg/mL | MIC ([7]; Clostridium sporogenes): 4.3 µg/mL | increased lag phase [7]: 4.3 ppm | MBC [8, 17]: 14.6 µg/mL | MIC [8, 17]: 12.1 µg/mL | increased lag phase ([8]; ppm of the active component): 9.7 ppm | MBC ([9]; DCS573, ppm of the active component): > 166 µg/mL | MIC ([9]; Limosilactobacillus reuteri, DCS573, ppm of the active component): 73.8 µg/mL | increased lag phase ([9]; ppm of the active component): 73.8 ppm | MBC (Hafnia alvei DCS 613; [18]): 27.4 µg/mL | MIC (Hafnia alvei DCS 613; [18]): 21.9 µg/mL | increased lag phase (Hafnia alvei DCS 613; ppm of the active component): 10.5 ppm | MBC [10, 19]: 4.3 µg/mL | MIC [10, 19]: 4.3 µg/mL | increased lag phase ([10]; ppm of the active component): 4.3 ppm | MBC [11, 20]: 14.6 µg/mL | MIC [11, 20]: 14.6 µg/mL | increased lag phase ([11]; ppm of the active component): 14.6 ppm | MBC ([12]; Clostridium sporogenes): 18.3 µg/mL | MIC ([12]; Clostridium sporogenes): 8.1 µg/mL | increased lag phase [12]: 8.1 ppm
